Experimental data as given in ChEMBL document CHEMBL1130062 (J Med Chem, 1997).

How the values were obtained:
[1] = molecular target: T1, Bifunctional dihydrofolate reductase-thymidylate synthase (Toxoplasma gondii, UniProt Q07422); test: Inhibitory concentration against Toxoplasma gondii dihydrofolate reductase
T1 sequence (Q07422 whole entry): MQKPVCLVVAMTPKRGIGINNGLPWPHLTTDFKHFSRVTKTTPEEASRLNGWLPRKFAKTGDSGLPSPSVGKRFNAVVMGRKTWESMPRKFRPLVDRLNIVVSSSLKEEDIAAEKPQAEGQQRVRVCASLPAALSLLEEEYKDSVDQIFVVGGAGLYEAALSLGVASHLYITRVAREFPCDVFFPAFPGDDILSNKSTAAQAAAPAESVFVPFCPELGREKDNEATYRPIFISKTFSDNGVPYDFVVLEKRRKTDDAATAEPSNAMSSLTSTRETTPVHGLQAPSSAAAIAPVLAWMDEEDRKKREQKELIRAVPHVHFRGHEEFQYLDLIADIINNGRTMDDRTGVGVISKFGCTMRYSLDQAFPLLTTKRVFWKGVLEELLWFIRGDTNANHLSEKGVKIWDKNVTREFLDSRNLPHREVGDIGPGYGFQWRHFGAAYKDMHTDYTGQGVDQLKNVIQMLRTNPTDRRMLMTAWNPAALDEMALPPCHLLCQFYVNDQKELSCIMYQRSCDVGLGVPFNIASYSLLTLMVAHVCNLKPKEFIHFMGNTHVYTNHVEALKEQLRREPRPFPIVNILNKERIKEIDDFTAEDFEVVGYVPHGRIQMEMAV

[2] = Selectivity index measured as the ratio of IC50 for rat liver DHFR to IC50 for Toxoplasma gondii DHFR.
Pneumocystis carinii = test: Concentration required to inhibit uptake of [3H]4-aminobenozoic acid over 24 hr against Pneumocystis carinii microorganisms extracted from immunocompromized rats.; details: Rattus norvegicus
Dihydrofolate reductase = molecular target: T2, Dihydrofolate reductase (Pneumocystis carinii, UniProt P16184)
T2 sequence (P16184 whole entry): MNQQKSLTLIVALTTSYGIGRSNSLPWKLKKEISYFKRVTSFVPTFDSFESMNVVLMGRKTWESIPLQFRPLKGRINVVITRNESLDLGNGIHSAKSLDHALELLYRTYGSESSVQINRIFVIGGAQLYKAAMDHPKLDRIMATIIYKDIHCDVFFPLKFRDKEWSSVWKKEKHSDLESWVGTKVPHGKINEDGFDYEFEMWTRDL
Description: In vitro inhibitory concentration against Pneumocystis carinii dihydrofolate reductase

SMILES | IC50 (Dihydrofolate reductase) | other results
CCc1nc(N)nc(N)c1-c1ccc(Cl)c(/N=N/N(CCOC)CCOC)c1 |  | IC50 [1]: 8.8 µM; Selectivity index [2]: 3; IC50 (Pneumocystis carinii): 30.5 µg/mL
CCc1nc(N)nc(N)c1-c1ccc(Cl)c(/N=C/N(C)C)c1 | 10.6 µM | IC50 [1]: 1.6 µM
CCc1nc(N)nc(N)c1-c1ccc(Cl)c(/N=N/N(CCO)CCO)c1 | 0.44 µM | IC50 (Pneumocystis carinii): 46.6 µg/mL
CCc1nc(N)nc(N)c1-c1ccc(Cl)c(/N=N/N2CCCC2)c1 | > 11 µM | 
CCc1nc(N)nc(N)c1-c1ccc(Cl)c(/N=N/N2CCN(C)CC2)c1 | 8.5 µM | 
CCCN(CCO)/N=N/c1cc(-c2c(N)nc(N)nc2CC)ccc1Cl | 2.5 µM | 
CCc1nc(N)nc(N)c1-c1ccc(Cl)c(/N=N/N(CCOC(C)=O)Cc2ccccc2)c1 |  | IC50 (Pneumocystis carinii): 43.9 µg/mL
CCc1nc(N)nc(N)c1-c1ccc(N(C)Cc2ccccc2)c([N+](=O)[O-])c1 |  | IC50 [1]: 0.091 µM
CCc1nc(N)nc(N)c1-c1ccc(Cl)c(/N=N/N(C)CCO)c1 | 3.5 µM | 
CCc1nc(N)nc(N)c1-c1ccc(Cl)c(/N=N/N(C(C)(C)C)C(C)(C)C)c1 | > 11 µM | 
CCc1nc(N)nc(N)c1-c1ccc(Cl)c(/N=N/N(C)C)c1 [listing 1 of 2 here] | 2.8 µM | IC50 [1]: 0.31 µM
CCc1nc(N)nc(N)c1-c1ccc(Cl)c([N+](=O)[O-])c1 |  | IC50 [1]: 0.013 µM; Selectivity index [2]: 1.1
CCc1nc(N)nc(N)c1-c1ccc(Cl)c(/N=N/N2CCC(O)CC2)c1 | 3.3 µM | 
CCc1nc(N)nc(N)c1-c1ccc(Cl)c(/N=N/N(C)C)c1 [listing 2 of 2 here] | 6 µM | 
CCc1nc(N)nc(N)c1-c1ccc(Cl)c([N+]#N)c1 |  | IC50 [1]: 0.023 µM
CCc1nc(N)nc(N)c1-c1ccc(Cl)c(/N=N/N(CC)CCO)c1 | 11.5 µM | 
CCc1nc(N)nc(N)c1-c1ccc(Cl)c(/N=N/N(CCO)C(C)(C)C)c1 | 4.9 µM | 
CCc1nc(N)nc(N)c1-c1ccc(Cl)c(/N=N/N(C)CC)c1 [listing 1 of 2 here] | 14.1 µM | 
CCc1nc(N)nc(N)c1-c1ccc(Cl)c(/N=N/N(C)CC2OCCO2)c1 | 0.57 µM | Selectivity index [2]: 28
CCc1nc(N)nc(N)c1-c1ccc(Cl)c(/N=N/N(C)CC)c1 [listing 2 of 2 here] | 6.6 µM | 
CCc1nc(N)nc(N)c1-c1ccc(Cl)c(N=[N+]=[N-])c1 | 1.33 µM | IC50 [1]: 0.69 µM; Selectivity index [2]: 0.5
CCc1nc(N)nc(N)c1-c1ccc(Cl)c(/N=N/N(CCO)Cc2ccccc2)c1 | 0.26 µM | IC50 (Pneumocystis carinii): 11.1 µg/mL
N=C(N)c1ccc(OCCCCCOc2ccc(C(=N)N)cc2)cc1 |  | IC50 (Pneumocystis carinii): 2.5 µM
CCCN(C)/N=N/c1cc(-c2c(N)nc(N)nc2CC)ccc1Cl [listing 1 of 2 here] | 7.6 µM | 
CCc1nc(N)nc(N)c1-c1ccc(Cl)c(/N=N/N2CCCCC2)c1 | 40.4 µM | 
CCc1nc(N)nc(N)c1-c1ccc(Cl)c(/N=N/N2CCOCC2)c1 |  | IC50 [1]: 0.19 µM; IC50 (Pneumocystis carinii): 49.7 µg/mL
CCc1nc(N)nc(N)c1-c1ccc(Cl)c(/N=N/N2CCc3ccccc3C2)c1 | 5 µM | 
CCc1nc(N)nc(N)c1-c1ccc(Cl)c(/N=N/N(C)Cc2ccccc2)c1 | 0.57 µM | 
CCCN(C)/N=N/c1cc(-c2c(N)nc(N)nc2CC)ccc1Cl [listing 2 of 2 here] | 10.2 µM | 
